Reference: BindingDB's records for doi:10.1016/j.chembiol.2010.07.016 (Cyclacel, 2010)

Assays:
Experiment in all cases: In Vitro Kinase Assay
[1] = target: Cyclin-dependent kinase 2 (Homo sapiens, UniProt P24941)
Excerpt: (§1) Kinase assay using cyclin-dependant kinases (CDK).

[2] = target: Cyclin-dependent kinase 7 (Homo sapiens, UniProt P50613)
Excerpt: as §1

[3] = target: Cyclin-dependent kinase 9 (Homo sapiens, UniProt P50750)
Excerpt: as §1

[4] = target: Cyclin-dependent kinase 4 (Homo sapiens, UniProt P11802)
Excerpt: as §1

[5] = target: Cyclin-dependent kinase 1 (Homo sapiens, UniProt P06493)
Excerpt: as §1

Chain of Cyclin-dependent kinase 4 (P11802 whole entry): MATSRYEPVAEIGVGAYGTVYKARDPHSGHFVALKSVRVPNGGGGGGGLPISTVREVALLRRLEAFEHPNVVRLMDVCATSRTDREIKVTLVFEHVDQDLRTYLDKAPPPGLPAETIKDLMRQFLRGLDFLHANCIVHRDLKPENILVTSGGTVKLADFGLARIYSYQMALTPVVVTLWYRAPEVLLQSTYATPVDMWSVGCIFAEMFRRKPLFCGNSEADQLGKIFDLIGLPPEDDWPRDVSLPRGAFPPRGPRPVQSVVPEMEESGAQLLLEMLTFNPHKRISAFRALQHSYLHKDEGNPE
Chain of Cyclin-dependent kinase 9 (P50750 whole entry): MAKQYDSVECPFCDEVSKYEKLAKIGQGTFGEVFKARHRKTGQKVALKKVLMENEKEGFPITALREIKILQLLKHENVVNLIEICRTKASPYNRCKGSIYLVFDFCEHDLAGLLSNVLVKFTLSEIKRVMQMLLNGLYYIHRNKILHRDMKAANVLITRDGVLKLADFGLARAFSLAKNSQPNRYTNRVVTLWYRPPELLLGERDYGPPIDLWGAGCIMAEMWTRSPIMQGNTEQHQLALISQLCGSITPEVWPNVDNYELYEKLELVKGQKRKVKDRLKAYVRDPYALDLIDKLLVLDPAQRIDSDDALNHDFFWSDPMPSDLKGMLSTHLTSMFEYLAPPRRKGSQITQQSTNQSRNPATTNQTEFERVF
Chain of Cyclin-dependent kinase 7 (P50613 whole entry): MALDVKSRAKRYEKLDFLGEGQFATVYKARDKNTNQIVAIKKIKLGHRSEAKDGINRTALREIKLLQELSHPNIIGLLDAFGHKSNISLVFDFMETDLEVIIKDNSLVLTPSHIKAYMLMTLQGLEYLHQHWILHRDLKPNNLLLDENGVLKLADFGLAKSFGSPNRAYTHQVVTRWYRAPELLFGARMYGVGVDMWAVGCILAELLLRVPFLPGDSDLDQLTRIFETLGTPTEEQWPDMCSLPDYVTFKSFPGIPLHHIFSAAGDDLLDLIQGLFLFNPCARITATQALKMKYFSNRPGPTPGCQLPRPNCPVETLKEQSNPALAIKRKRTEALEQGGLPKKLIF
Chain of Cyclin-dependent kinase 1 (P06493 whole entry): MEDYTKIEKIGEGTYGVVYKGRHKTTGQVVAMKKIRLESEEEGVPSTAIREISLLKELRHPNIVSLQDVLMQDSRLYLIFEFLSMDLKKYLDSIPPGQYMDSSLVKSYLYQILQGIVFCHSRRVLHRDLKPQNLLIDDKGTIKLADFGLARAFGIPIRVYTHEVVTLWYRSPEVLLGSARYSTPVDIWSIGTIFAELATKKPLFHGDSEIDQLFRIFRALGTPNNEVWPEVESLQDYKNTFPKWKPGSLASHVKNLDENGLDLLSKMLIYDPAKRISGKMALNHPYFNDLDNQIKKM

Compound	Ki [1]	Ki [2]	Ki [3]	Ki [4]	Ki [5]
CNc1nc(C)c(-c2ccnc(Nc3cccc(S(=O)(=O)NC)c3)n2)s1 [CDK Inhibitor, 4]	33 nM	107 nM	4.3 nM	20 nM	334 nM
CNc1nc(C)c(-c2ccnc(Nc3ccc(C)c(S(=O)(=O)N4CCOCC4)c3)n2)s1 [CDK Inhibitor, 9]	> 500 nM	3470 nM	6.7 nM	> 500 nM	> 500 nM
Cc1c(-c2ccnc(Nc3cccc(C#N)c3)n2)sc(=O)n1C [CDK Inhibitor, 12]	0.52 nM	–	–	102 nM	–
Cc1c(-c2ccnc(Nc3ccc(N4CCNCC4)cc3)n2)sc(=O)n1C [CDK Inhibitor, 14]	149 nM	2.3 nM	0.38 nM	68 nM	449 nM
CNc1nc(C)c(-c2ccnc(Nc3cccc(S(N)(=O)=O)c3)n2)s1 [CDK Inhibitor, 3]	2.4 nM	25 nM	0.8 nM	9.1 nM	67 nM
CCNc1nc(C)c(-c2ccnc(Nc3cccc(S(N)(=O)=O)c3)n2)s1 [CDK Inhibitor, 2]	403 nM	56 nM	4.5 nM	132 nM	691 nM
COCCNS(=O)(=O)c1ccc(Nc2nccc(-c3sc(=O)n(C)c3C)n2)cc1 [CDK Inhibitor, 11]	–	–	–	> 500 nM	–
Cc1ccc(Nc2nccc(-c3sc(N)nc3C)n2)cc1S(=O)(=O)N1CCOCC1 [CDK Inhibitor, 10]	> 500 nM	304 nM	8.5 nM	> 500 nM	> 500 nM
Cc1ccc(Nc2nccc(-c3sc(=O)n(C)c3C)n2)cc1[N+](=O)[O-] [CDK Inhibitor, 13]	28 nM	0.56 nM	5.9 nM	60 nM	3 nM
CCNS(=O)(=O)c1cccc(Nc2nccc(-c3sc(N)nc3C)n2)c1 [CDK Inhibitor, 8]	47 nM	193 nM	5.9 nM	391 nM	660 nM
CNc1nc(C)c(-c2ccnc(Nc3cccc(S(C)(=O)=O)c3)n2)s1 [CDK Inhibitor, 6]	1.6 nM	91 nM	0.29 nM	94 nM	86 nM
CCNc1nc(C)c(-c2ccnc(Nc3cccc(S(C)(=O)=O)c3)n2)s1 [CDK Inhibitor, 7]	7.6 nM	47 nM	0.96 nM	139 nM	> 500 nM
CNS(=O)(=O)c1cccc(Nc2nccc(-c3sc(N)nc3C)n2)c1 [CDK Inhibitor, 5]	26 nM	127 nM	4.3 nM	163 nM	233 nM
